Measured values taken from ChEMBL document CHEMBL1201862, “PubChem BioAssay data set” (2004).
Activity calls are given as the source filed them.

Tests used:
Caspase-6 = Caspase-6 (Homo sapiens, UniProt P55212); assay: human caspase-6 inhibitors, dose response, biochemical, VEID-R110 fluorescence, cherry-pick (AID 720632)
[1] = target: T1, Carboxy-terminal domain RNA polymerase II polypeptide A small phosphatase 1 (Homo sapiens, UniProt Q9GZU7); assay: inhibitors of CTDSP1, concentration-response testing, biochemical assay, absorbance-based, actives from ultra-high-throughput screening (AID 540297); assay type: functional
T1 sequence (Q9GZU7 whole entry): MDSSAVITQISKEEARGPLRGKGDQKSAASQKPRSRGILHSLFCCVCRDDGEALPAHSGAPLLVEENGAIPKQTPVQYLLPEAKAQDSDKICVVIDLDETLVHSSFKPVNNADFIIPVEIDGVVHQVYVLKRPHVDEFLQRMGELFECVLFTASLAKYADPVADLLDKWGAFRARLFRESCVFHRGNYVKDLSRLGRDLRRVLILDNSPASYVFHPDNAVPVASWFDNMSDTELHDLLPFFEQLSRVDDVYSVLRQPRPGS

[2] = target: T2, Low molecular weight phosphotyrosine protein phosphatase (Homo sapiens, UniProt P24666); assay type: functional; conditions: read-out: IC50_Mean
T2 sequence (P24666 whole entry): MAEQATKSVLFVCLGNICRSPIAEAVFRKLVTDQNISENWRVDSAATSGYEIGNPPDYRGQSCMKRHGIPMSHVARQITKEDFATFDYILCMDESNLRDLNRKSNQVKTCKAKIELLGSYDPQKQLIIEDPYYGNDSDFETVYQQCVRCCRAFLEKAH

[3] = target: T2, Low molecular weight phosphotyrosine protein phosphatase; assay type: functional; conditions: read-out: IC50_Mean; remark: listed apart in the source
Major prion protein = Major prion protein (Homo sapiens, UniProt P04156); assay type: functional, cell-based
cells [4] = assay: cells
[5] = target: T3, Sentrin-specific protease 8 (Homo sapiens, UniProt Q96LD8); assay type: functional;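 further: kinetic enzyme assay of SENP8 cleaving a Nedd8 protein substrate, dose-response confirmation of screening hits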
T3 sequence (Q96LD8 whole entry): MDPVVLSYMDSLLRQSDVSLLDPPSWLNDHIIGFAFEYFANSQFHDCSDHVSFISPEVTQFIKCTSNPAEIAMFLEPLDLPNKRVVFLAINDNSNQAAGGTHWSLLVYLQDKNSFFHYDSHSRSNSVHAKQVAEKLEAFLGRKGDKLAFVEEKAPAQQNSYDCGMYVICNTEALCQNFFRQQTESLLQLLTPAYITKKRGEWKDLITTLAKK

Albumin = Albumin (Bos taurus, UniProt P02769); assay: Counterscreen for inhibitors of T-cell receptor (TCR)-CD3 interaction: Fluorescence-based biochemical high throughput dose response assay to identify inhibitors of T-cell receptor (TCR)-CD3 interaction using a TAMRA-labeled BSA probe.; assay type: functional
[6] = inhibitors of intracellular T. cruzi replication, confirmation, NIH3T3 host cells, beta-gal luminescence (AID 2044); assay type: functional, cell-based;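 further: intracellular parasites grown in NIH/3T3 mouse fibroblasts as host cells; luminescent beta-galactosidase reporter signal from transgenic T. cruzi replicating inside host cells; inhibitors lower the luminescence signal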
[7] = cytotoxicity toward NIH3T3 fibroblasts, dose response, counter-screen, cell-based, ATP luminescence, mouse fibroblasts (AID 2010); assay type: functional;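 further: cells exposed to compound for about 90 hours before reading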
Galanin receptor type 3 = Galanin receptor type 3 (Homo sapiens, UniProt O60755); assay: Fluorescence-based cell-based primary high throughput dose response assay to identify antagonists of the Galanin Receptor 3 (GalR3).; assay type: functional
cells [8] = assay type: functional, cell-based; conditions: HEK-CNG
[9] = target: Heat shock protein HSP 90-alpha (Homo sapiens, UniProt P07900); assay type: functional, organism-based
Interleukin-8 = target: T4, Interleukin-8 (Homo sapiens, UniProt P10145); assay: Dose Response confirmation of uHTS small molecule hits for cystic fibrosis induced NFkb Inhibitors in a PAF-induced IL8 counterscreen.; assay type: functional; conditions: read-out: IC50_Mean
T4 sequence (P10145 whole entry): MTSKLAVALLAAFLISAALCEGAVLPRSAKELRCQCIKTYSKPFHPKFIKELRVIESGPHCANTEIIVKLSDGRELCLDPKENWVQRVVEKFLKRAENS

HeLa = assay: HeLa cell cytotoxicity, dose response, cytotoxicity control, ATP luminescence, cherry-pick samples (AID 687004); assay type: functional, cell-based; conditions: Homo sapiens
[10] = non-specific cell cytotoxicity, dose response, cytotoxicity control for PAX8 inhibitor project, plate reader, dry powder samples (AID 743021); assay type: functional, cell-based
[11] = target: 1-phosphatidylinositol 4,5-bisphosphate phosphodiesterase gamma-1 (Homo sapiens, UniProt P19174); assay: Counterscreen for inhibitors of phospholipase C isozymes (PLC-B3): Fluorescence-based biochemical high throughput dose response assay to identify inhibitors of phospholipase C isozymes (PLC-gamma1).
[12] = target: 1-phosphatidylinositol 4,5-bisphosphate phosphodiesterase beta-3 (Homo sapiens, UniProt Q01970); assay: Fluorescence-based biochemical high throughput dose response assay to identify inhibitors of phospholipase C isozymes (PLC-B3).
[13] = target: T5, Probable nicotinate-nucleotide adenylyltransferase (Staphylococcus aureus (strain N315), UniProt P65502); assay type: functional, Staphylococcus aureus subsp. aureus N315;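 on IC50 Mean: confirmatory dose-response retesting of NadD inhibitor hits first found in an ultra-high-throughput screen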
[14] = target: T5, Probable nicotinate-nucleotide adenylyltransferase; assay type: functional, Staphylococcus aureus subsp. aureus N315; conditions: read-out: IC50_Mean

O=C(Nc1cccc(C(F)(F)F)c1)c1cccc(NS(=O)(=O)c2ccc(O)c(C(=O)O)c2)c1
AC50 (Caspase-6): 40.3 µM (active)

O=C(Nc1nc2ccsc2c(=O)s1)c1ccc(F)cc1
IC50 [1]: 5.11 µM (active) | IC50 [2]: 32 µM (inactive) | IC50 [3]: 11 µM (active)

CCOc1cc(C2Nc3ccccc3C(=O)N2c2ccccc2)c(Br)cc1OCC(=O)O (stereo not given)
IC50 (Major prion protein): 10.1 µM (inactive) | IC50 (cells [4]): > 138 µM (inactive)

O=[N+]([O-])c1cc(F)c2cccnc2c1O
IC50 [5]: 12 µM (active) | AC50 (Caspase-6): 14.3 µM (active)

C=CCn1c(O)c(N=NC(=O)CNC(=O)/C=C/c2ccco2)c2ccccc21
IC50 (Albumin): > 94.1 µM (inactive)

CC(C)c1nc(SCC(=O)Nc2nccs2)c2ccccc2n1
IC50 (Major prion protein): 2.4 µM (active) | IC50 (cells [4]): > 138 µM (inactive)

O=C(CN1CCC(c2nc3ccccc3s2)CC1)NCc1cccs1
EC50 [6]: 0.646 µM (active) | EC50 [7]: > 30 µM (not active) | IC50 (Galanin receptor type 3): 1.39 µM (active) | EC50 (cells [8]): > 29.9 µM (inactive)

Cc1ccc(-c2onc3ccc(C(=O)/C=C/N(C)C)cc23)cc1
AC50 [9]: 4.11 µM (active) | IC50 (Interleukin-8): 17.9 µM (inactive)

Cc1ccc(-n2ncc3c(SCC(N)=O)ncnc32)cc1C
AC50 (HeLa): > 52 µM (inactive)

Cc1ccc(NC(=S)N(CCCN2CCOCC2)Cc2ccccn2)cc1
AC50 [10]: 50.9 µM (active)

CCc1nc(N)nc(N)c1-c1ccc(Cl)c(N=[N+]=[N-])c1
IC50 [2]: 24.1 µM (inactive) | IC50 [3]: 13.4 µM (active)

COc1ccc(CCN(C)C(=O)CN2C(=O)NC3(CCCc4ccccc43)C2=O)cc1OC (stereo not given)
IC50 [11]: > 122 µM (inactive) | IC50 [12]: > 122 µM (inactive)

O=C1NC[C@H](Cc2ccccc2)N(C[C@H]2CCCN2C[C@H](Cc2ccccc2)N2C[C@H](Cc3ccc(O)cc3)N(CC3CCCCCC3)C(=O)C2=O)C1=O
IC50 [13]: 11.6 µM (active) | IC50 [14]: 37.5 µM (active)
